pEC50, pIC50: −log10 of the molar value. Converted amounts (≈) assume the structure as drawn.
Legend:
A. baumannii CDC-0045 = test: microbe, parasite or virus in culture; format: cell-based; details: Acinetobacter baumannii, CDC0045, read-out: MIC, A. baumannii CDC-0045
N. gonorrhoeae CDC-0197 = test: Liquid broth MIC in Fastidious broth; details: Neisseria gonorrhoeae, CDC0197, read-out: Minimum Inhibitory Concentration (MIC), N. gonorrhoeae CDC-0197
[1] = target: T1, PBP3 from Escherichia coli (K-12) (Escherichia coli, UniProt P0AD68); test: Bocillin-FL fluorescence polarization competition binding, E. coli PBP3
T1 construct: made in house
Procedure, shortened: (§1)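 Purified PBP was preincubated with inhibitor (E. coli PBP3 1.5 μM, 30 min; P. aeruginosa PBP3 0.75 μM, A. baumannii PBP3 0.2 μM and PBP1a 1 μM, 15 min), then Bocillin-FL (0.1 μM; 0.05 μM for PBP1a) added and FP read up to 60 min. EC50 = 50% loss of bound probe.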

N. gonorrhoeae FA1090 = test: Liquid broth MIC in Fastidious broth; details: Neisseria gonorrhoeae, FA1090, read-out: Minimum Inhibitory Concentration (MIC), N. gonorrhoeae FA 1090
N. gonorrhoeae WHO L = test: Liquid broth MIC in Fastidious broth; details: Neisseria gonorrhoeae, read-out: Minimum Inhibitory Concentration (MIC), N. gonorrhoeae WHO L
[2] = system: B. thailandensis ATCC 700388; test: microbe, parasite or virus in culture; format: cell-based; details: Burkholderia thailandensis, ATCC700388, read-out: Minimum inhibitory concentration (MIC), B. thailandensis ATCC 700388
A. baumannii ATCC 19606 = test: microbe, parasite or virus in culture; format: cell-based; details: Acinetobacter baumannii, ATCC19606, read-out: MIC, A. baumannii ATCC 19606
[3] = system: P. aeruginosa (ΔmexAB-oprM); test: Broth microdilution MIC in iron-depleted CAMHB (IDM); format: cell-based; details: Pseudomonas aeruginosa; iron-depleted CAMHB (IDM); […]; read-out: Minimum inhibitory concentration, P. aeruginosa ΔmexAB-oprM
N. gonorrhoeae WHO G = test: Liquid broth MIC in Fastidious broth; details: Neisseria gonorrhoeae, read-out: Minimum Inhibitory Concentration (MIC), N. gonorrhoeae WHO G
Experimental: Additional antibacterial testing of the series was performed in 8 reference strains of N. gonorrhoeae (ATCC 49226, FA1090, MS 11, WHO G, WHO L, WHO M, WHO K, WHO X, WHO Z, WHO Q, CDC-0197). ATCC 49226, FA1090, MS11, WHO G, WHO L, and WHO M produce wild type or wild-type like PBP2. WHO K, WHO X, WHO Z, WHO Q, and CDC-0197 produce mosaic PBP2. Liquid broth-based assays were used for antibacterial testing of PBP inhibitors in Neisseria gonorrhoeae. Briefly, cryo-preserved bacterial cultures of clinical strains were streaked for isolation on Chocolate Agar (72 g/L (2×) GC Agar Base (BD #228950) and 2% (2×) Hemoglobin was autoclaved at 121° C. for 20 minutes to sterilize. Once cooled to ˜50° C. the 2×GC Agar Base and 2× Hemoglobin solutions are combined and 1% IsoVitaleX Enrichment (BD #211876) was added to the solution). Strains were incubated at 36° C. and 5% CO2 to allow growth of colonies, 24 hours before inoculum preparation. 2-fold serial dilutions of test compounds were conducted in a 96 well plate with a final volume of 75 μL per well at 2-fold the final desired concentration in Fastidious broth (Remel #R07664). For preparation of assay inoculum, a direct suspension was prepared by aseptically swabbing 10-15 colonies from agar plates into culture tubes containing 2 mL of fresh sterile saline. After the dilution plates were set up, direct suspensions were then diluted in a cuvette containing sterile saline and the optical density was measured at 600 nm. Inocula were diluted such that 75 μL of this culture in Fastidious broth results in a starting bacterial concentration of 5×10^5 CFU/mL when added to the dilution plates. The plates were incubated for ˜24 hours at 36° C. and 5% CO2.

[4] = target: T2, PBP3 from Pseudomonas aeruginosa (PAO1) (Pseudomonas aeruginosa, UniProt G3XD46); test: Bocillin-FL fluorescence polarization competition binding, P. aeruginosa PBP3; details: Binding affinity to P. aeruginosa PBP3; fluorescence polarization competition binding assay using Bocillin-FL; read-out: P. aeruginosa PBP3 Potency
T2 construct: made in house
Procedure, shortened: as §1

N. gonorrhoeae WHO Z = test: Liquid broth MIC in Fastidious broth; details: Neisseria gonorrhoeae, read-out: Minimum Inhibitory Concentration (MIC), N. gonorrhoeae WHO Z
[5] = system: B. humptydooensis ATCC BAA-2767; test: microbe, parasite or virus in culture; format: cell-based; details: Burkholderia humptydooensis, ATCCBAA2767, read-out: Minimum inhibitory concentration (MIC), B. humptydooensis ATCC BAA-2767
P. aeruginosa ATCC 27853 = test: microbe, parasite or virus in culture; format: cell-based; details: Pseudomonas aeruginosa, ATCC27853, read-out: Minimum inhibitory concentration, P. aeruginosa ATCC 27853
[6] = system: N. gonorrhoeae ATCC 49226; test: Liquid broth MIC in Fastidious broth; details: Neisseria gonorrhoeae, ATCC49226, read-out: Minimum Inhibitory Concentration (MIC), N. gonorrhoeae ATCC 49226
N. gonorrhoeae MS11 = test: Liquid broth MIC in Fastidious broth; details: Neisseria gonorrhoeae, MS11, read-out: Minimum Inhibitory Concentration (MIC), N. gonorrhoeae MS11

T1 sequence (P0AD68 1-577): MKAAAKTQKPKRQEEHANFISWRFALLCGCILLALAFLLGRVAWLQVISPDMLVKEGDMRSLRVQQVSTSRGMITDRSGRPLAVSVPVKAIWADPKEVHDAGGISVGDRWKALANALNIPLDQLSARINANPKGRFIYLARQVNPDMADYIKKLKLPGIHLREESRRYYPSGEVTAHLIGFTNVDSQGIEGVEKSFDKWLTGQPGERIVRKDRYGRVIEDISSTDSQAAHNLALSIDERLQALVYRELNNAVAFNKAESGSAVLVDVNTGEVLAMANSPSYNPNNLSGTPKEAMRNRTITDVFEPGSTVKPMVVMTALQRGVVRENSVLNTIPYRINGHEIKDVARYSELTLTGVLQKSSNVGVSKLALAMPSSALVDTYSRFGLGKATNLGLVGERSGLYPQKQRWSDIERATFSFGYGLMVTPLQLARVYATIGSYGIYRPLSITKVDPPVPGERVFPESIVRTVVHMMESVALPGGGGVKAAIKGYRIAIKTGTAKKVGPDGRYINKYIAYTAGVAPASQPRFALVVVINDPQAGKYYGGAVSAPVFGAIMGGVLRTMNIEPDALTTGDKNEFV
T2 sequence (G3XD46 whole entry): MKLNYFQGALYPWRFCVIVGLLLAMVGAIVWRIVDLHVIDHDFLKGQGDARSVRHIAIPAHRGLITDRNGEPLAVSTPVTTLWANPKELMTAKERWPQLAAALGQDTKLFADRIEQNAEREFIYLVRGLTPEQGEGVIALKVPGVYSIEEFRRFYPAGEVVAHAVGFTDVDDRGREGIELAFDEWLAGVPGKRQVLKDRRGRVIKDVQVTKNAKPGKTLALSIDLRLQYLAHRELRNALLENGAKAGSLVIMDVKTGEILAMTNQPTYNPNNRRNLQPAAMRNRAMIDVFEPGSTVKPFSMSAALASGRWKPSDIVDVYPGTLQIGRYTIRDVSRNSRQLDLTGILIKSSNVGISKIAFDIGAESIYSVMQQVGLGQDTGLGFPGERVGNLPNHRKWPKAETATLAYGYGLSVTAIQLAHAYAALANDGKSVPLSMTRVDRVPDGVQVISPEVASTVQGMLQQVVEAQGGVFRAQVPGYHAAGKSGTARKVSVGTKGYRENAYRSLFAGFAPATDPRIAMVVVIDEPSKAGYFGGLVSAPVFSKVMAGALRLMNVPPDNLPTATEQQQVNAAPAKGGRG

Structure (SMILES) | MIC (A. baumannii CDC-0045) [µg/mL] | MIC (N. gonorrhoeae CDC-0197) [µg/mL] | pEC50 [1] | MIC (N. gonorrhoeae FA1090) [µg/mL] | MIC (N. gonorrhoeae WHO L) [µg/mL] | MIC [2] [µg/mL] | MIC (A. baumannii ATCC 19606) [µg/mL] | MIC [3] [µg/mL] | MIC (N. gonorrhoeae WHO G) [µg/mL] | pIC50 [4] | MIC (N. gonorrhoeae WHO Z) [µg/mL] | MIC [5] [µg/mL] | MIC (P. aeruginosa ATCC 27853) [µg/mL] | MIC [6] [µg/mL] | MIC (N. gonorrhoeae MS11) [µg/mL]
CN(CCN1CCN(C(=O)N[C@@H](C(=O)N[C@H]2Cc3ccc(F)c(C(=O)O)c3OB2O)c2cc(F)c(O)c(O)c2Cl)C(=O)C1=O)Cc1nccs1 [Example 200, (R)-3-((R)-2-(2-chloro-5-fluoro-3,4-dihydroxyphenyl)-2-(4-(2-(methyl(thiazol-2-ylmethyl)amino)ethyl)-2,3-dioxopiperazine-1-carboxamido)acetamido)-7-fluoro-2-hydroxy-3,4-dihydro-2H-benzo[e][1,2]oxaborinine-8-carboxylic acid] | < 1 | > 64 | 4.30 to 5.00 | 1 to 2 (≈ 1.36 to 2.71 µM) | > 64 | < 1 | < 1 | < 1 | 4 to 8 (≈ 5.43 to 10.9 µM) | > 5.00 | 16 to 32 (≈ 21.7 to 43.4 µM) | < 1 | < 1 | 4 to 8 (≈ 5.43 to 10.9 µM) | 16 to 32 (≈ 21.7 to 43.4 µM)
CN(CCN1CCN(C(=O)N[C@@H](C(=O)N[C@H]2Cc3ccc(F)c(C(=O)O)c3OB2O)c2cc(F)c(O)c(O)c2Cl)C(=O)C1=O)Cc1cccnc1 [Example 201, (R)-3-((R)-2-(2-chloro-5-fluoro-3,4-dihydroxyphenyl)-2-(4-(2-(methyl(pyridin-3-ylmethyl)amino)ethyl)-2,3-dioxopiperazine-1-carboxamido)acetamido)-7-fluoro-2-hydroxy-3,4-dihydro-2H-benzo[e][1,2]oxaborinine-8-carboxylic acid] | < 1 | > 64 | > 5.00 | 1 to 2 (≈ 1.37 to 2.74 µM) | > 64 | < 1 | < 1 | < 1 | 4 to 8 (≈ 5.47 to 10.9 µM) | > 5.00 | > 64 | < 1 | < 1 | 16 to 32 (≈ 21.9 to 43.8 µM) | 16 to 32 (≈ 21.9 to 43.8 µM)
CN(CCN1CCN(C(=O)N[C@@H](C(=O)N[C@H]2Cc3ccc(F)c(C(=O)O)c3OB2O)c2cc(F)c(O)c(O)c2Cl)C(=O)C1=O)Cc1cncc(O)c1 [Example 208, (R)-3-((R)-2-(2-chloro-5-fluoro-3,4-dihydroxyphenyl)-2-(4-(2-(((5-hydroxypyridin-3-yl)methyl)(methyl)amino)ethyl)-2,3-dioxopiperazine-1-carboxamido)acetamido)-7-fluoro-2-hydroxy-3,4-dihydro-2H-benzo[e][1,2]oxaborinine-8-carboxylic acid] | < 1 | 16 to 32 (≈ 21.4 to 42.8 µM) | > 5.00 | 1 to 2 (≈ 1.34 to 2.68 µM) | > 64 | < 1 | < 1 | < 1 | 4 to 8 (≈ 5.36 to 10.7 µM) | – | 16 to 32 (≈ 21.4 to 42.8 µM) | < 1 | < 1 | 4 to 8 (≈ 5.36 to 10.7 µM) | 4 to 8 (≈ 5.36 to 10.7 µM)
CN(CCN1CCN(C(=O)N[C@@H](C(=O)N[C@H]2Cc3ccc(F)c(C(=O)O)c3OB2O)c2cc(F)c(O)c(O)c2Cl)C(=O)C1=O)Cc1ccc(N)nc1 [Example 209, (R)-3-((R)-2-(4-(2-(((6-aminopyridin-3-yl)methyl)(methyl)amino)ethyl)-2,3-dioxopiperazine-1-carboxamido)-2-(2-chloro-5-fluoro-3,4-dihydroxyphenyl)acetamido)-7-fluoro-2-hydroxy-3,4-dihydro-2H-benzo[e][1,2]oxaborinine-8-carboxylic acid] | < 1 | 16 to 32 (≈ 21.5 to 42.9 µM) | > 5.00 | 1 to 2 (≈ 1.34 to 2.68 µM) | > 64 | < 1 | < 1 | < 1 | 4 to 8 (≈ 5.36 to 10.7 µM) | – | 16 to 32 (≈ 21.5 to 42.9 µM) | < 1 | < 1 | 4 to 8 (≈ 5.36 to 10.7 µM) | 4 to 8 (≈ 5.36 to 10.7 µM)
O=C(NCCCN1CCN(C(=O)NC(C(=O)N[C@H]2Cc3ccc(F)c(C(=O)O)c3OB2O)c2cc(F)c(O)c(O)c2Cl)C(=O)C1=O)c1nccs1 (stereo partly drawn) [Example 211, (3R)-3-(2-(2-chloro-5-fluoro-3,4-dihydroxyphenyl)-2-(2,3-dioxo-4-(3-(thiazole-2-carboxamido)propyl)piperazine-1-carboxamido)acetamido)-7-fluoro-2-hydroxy-3,4-dihydro-2H-benzo[e][1,2]oxaborinine-8-carboxylic acid] | < 1 | 16 to 32 (≈ 21.3 to 42.6 µM) | > 5.00 | 1 to 2 (≈ 1.33 to 2.66 µM) | > 64 | 2 to 4 (≈ 2.66 to 5.33 µM) | < 1 | < 1 | 16 to 32 (≈ 21.3 to 42.6 µM) | – | 16 to 32 (≈ 21.3 to 42.6 µM) | < 1 | 2 to 4 (≈ 2.66 to 5.33 µM) | 16 to 32 (≈ 21.3 to 42.6 µM) | 16 to 32 (≈ 21.3 to 42.6 µM)
O=C(O)c1c(F)ccc2c1OB(O)[C@@H](NC(=O)C(NC(=O)N1CCN(CCCNC(=O)[C@@H]3CCCN3)C(=O)C1=O)c1cc(F)c(O)c(O)c1Cl)C2 (stereo partly drawn) [Example 212, (3R)-3-(2-(2-chloro-5-fluoro-3,4-dihydroxyphenyl)-2-(2,3-dioxo-4-(3-((S)-pyrrolidine-2-carboxamido)propyl)piperazine-1-carboxamido)acetamido)-7-fluoro-2-hydroxy-3,4-dihydro-2H-benzo[e][1,2]oxaborinine-8-carboxylic acid] | 2 to 4 (≈ 2.71 to 5.43 µM) | 16 to 32 (≈ 21.7 to 43.4 µM) | 4.30 to 5.00 | 4 to 8 (≈ 5.43 to 10.9 µM) | > 64 | 2 to 4 (≈ 2.71 to 5.43 µM) | < 1 | < 1 | 16 to 32 (≈ 21.7 to 43.4 µM) | – | > 64 | < 1 | 2 to 4 (≈ 2.71 to 5.43 µM) | 16 to 32 (≈ 21.7 to 43.4 µM) | 16 to 32 (≈ 21.7 to 43.4 µM)
O=C(NCCCN1CCN(C(=O)NC(C(=O)N[C@H]2Cc3ccc(F)c(C(=O)O)c3OB2O)c2cc(F)c(O)c(O)c2Cl)C(=O)C1=O)Nc1cccnc1 (stereo partly drawn) [Example 213, (3R)-3-(2-(2-chloro-5-fluoro-3,4-dihydroxyphenyl)-2-(2,3-dioxo-4-(3-(3-(pyridin-3-yl)ureido)propyl)piperazine-1-carboxamido)acetamido)-7-fluoro-2-hydroxy-3,4-dihydro-2H-benzo[e][1,2]oxaborinine-8-carboxylic acid] | 2 to 4 (≈ 2.63 to 5.26 µM) | > 64 | > 5.00 | 1 to 2 (≈ 1.32 to 2.63 µM) | > 64 | 2 to 4 (≈ 2.63 to 5.26 µM) | < 1 | < 1 | 16 to 32 (≈ 21.1 to 42.1 µM) | – | > 64 | < 1 | 2 to 4 (≈ 2.63 to 5.26 µM) | 16 to 32 (≈ 21.1 to 42.1 µM) | 16 to 32 (≈ 21.1 to 42.1 µM)

— patent US20240270762A1, “PENICILLIN-BINDING PROTEIN INHIBITORS” (priority 2021, published 2024)
